Biological target: T1, CHK1 (Cricetulus griseus, UniProt G3I7I8)
T1 construct: gene Chek1
T1 sequence (G3I7I8 1-476): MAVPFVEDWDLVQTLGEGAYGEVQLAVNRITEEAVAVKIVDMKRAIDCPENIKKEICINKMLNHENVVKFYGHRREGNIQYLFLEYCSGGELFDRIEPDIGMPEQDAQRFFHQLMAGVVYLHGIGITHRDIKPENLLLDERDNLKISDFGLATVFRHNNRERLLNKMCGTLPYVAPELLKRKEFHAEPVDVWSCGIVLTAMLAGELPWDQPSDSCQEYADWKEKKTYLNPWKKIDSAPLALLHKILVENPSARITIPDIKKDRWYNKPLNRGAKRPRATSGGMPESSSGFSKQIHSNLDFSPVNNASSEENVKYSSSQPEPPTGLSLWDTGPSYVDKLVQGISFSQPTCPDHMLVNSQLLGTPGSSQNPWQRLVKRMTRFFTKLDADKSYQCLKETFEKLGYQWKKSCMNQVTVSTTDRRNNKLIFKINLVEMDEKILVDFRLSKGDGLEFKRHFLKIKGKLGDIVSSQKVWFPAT
Assay: Western blot of CHK1 S296 autophosphorylation in rucaparib-treated V-C8 and V-C8.B2 cells
Format: cell-based
Settings: read-out: % inhibition at 50 nM

inhibition at 0.05 µM: 91.4%
Structure (SMILES): Cn1cc(-c2[nH]c3cc(NC(=O)[C@H](N)C4CCCCC4)cc4c3c2C=NNC4=O)cn1 [PF-477736]

Reference: paper PMC7226483, “Exploring the Synergy between PARP and CHK1 Inhibition in Matched BRCA2 Mutant and Corrected Cells” (Cancers, 2020)
